pIC50: −log10 of the molar value.
Molecular target: T1, Relaxin-3 receptor 1 (Homo sapiens, UniProt Q9NSD7)
T1 sequence (Q9NSD7 whole entry): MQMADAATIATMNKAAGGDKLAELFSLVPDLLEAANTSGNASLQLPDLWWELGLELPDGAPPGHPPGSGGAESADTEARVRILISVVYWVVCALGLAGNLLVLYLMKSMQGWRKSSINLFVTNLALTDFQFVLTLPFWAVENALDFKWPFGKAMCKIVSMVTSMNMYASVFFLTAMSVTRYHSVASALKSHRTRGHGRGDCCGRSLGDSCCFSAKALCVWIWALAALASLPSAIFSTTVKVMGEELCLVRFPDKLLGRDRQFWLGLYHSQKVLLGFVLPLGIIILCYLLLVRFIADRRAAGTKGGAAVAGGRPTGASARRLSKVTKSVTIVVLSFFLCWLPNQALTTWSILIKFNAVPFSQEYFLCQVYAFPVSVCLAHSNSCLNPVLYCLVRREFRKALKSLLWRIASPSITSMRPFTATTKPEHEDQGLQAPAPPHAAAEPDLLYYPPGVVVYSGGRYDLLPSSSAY
Assay: Antagonist activity at human RXFP3 expressed in CHO-K1 cells assessed as forskolin-induced cAMP accumulation measured after 30 mins in presence of relaxin-3 by TR-FRET assay
Type: functional, cell-based

Row | SMILES | pIC50
1 | Cc1ccc(-c2noc(-c3ccc(NC(=O)C4CC(=O)N(Cc5ccccc5F)C4)cc3)n2)cc1 (centres undefined) | < 5.00
2 | Cc1ccc(-c2noc(-c3ccc(NC(=O)C4CC(=O)N(Cc5ccccn5)C4)cc3)n2)cc1 (centres undefined) | < 5.00
3 | Cc1ccc(-c2noc(-c3ccc(NC(=O)C4CC(=O)N(CCc5ccccc5)C4)cc3)n2)cc1 (centres undefined) | < 5.00
4 | Cc1ccc(-c2noc(-c3ccc(NC(=O)C4CC(=O)N(Cc5cccnc5)C4)cc3)n2)cc1 (centres undefined) | 5.67
